The values below come from paper PMC6930524, “A Prospective Repurposing of Dantrolene as a Multitarget Agent for Alzheimer’s Disease” (Molecules, 2019).

Test [1] can be described thus: ABTS radical scavenging assay. The test is classed as physicochemical. The conditions noted are these: compound at 0.2·[ABTS+]. From the text:
(§1) Starting from these evidences, we tested DAN in two in vitro models of radical scavenging activity, i.e., the 1,1-diphenyl-2-picryl-hydrazyl (DPPH) and 2,2′-azinobis-(3-ethylbenzothiazoline-6-sulfonic acid) (ABTS) free radical production. Both generate stable nitrogen radicals showing high absorption in visible spectrum, thus allowing easy and straightforward spectrophotometric measures. […] It can be assumed that the antioxidant activity of DAN is independent from its radical scavenging properties.
(§2) Already published protocols for DPPH and […] radical scavenging were used. The scavenging of the radical DPPH^·, or the monocation radical ABTS^·+, were determined by measuring the loss of absorbance at 515 or 755 nm, respectively. Samples were prepared in clear polystyrene flat-bottomed 96-well microplates. […] A preliminary absorbance reading at 755 nm allowed to determine the actual ABTS^·+ concentration (normally 60–70 μM; extinction coefficient ε = 12,000) and set the final concentration of inhibitors to 0.2[ABTS^·+]. 215 μL of ABTS^·+ solution were mixed with 35 μL of stock solution of inhibitors and the decrease in absorbance was monitored. Antioxidant activity was determined from Equation (2) as the percentage of radical production of inhibitor containing samples, compared with control: % radical production = 100 × ABSsample/ABScontrol(2)

The nature of test [2]: DPPH radical scavenging assay. The test is classed as physicochemical. The conditions noted are these: compound 50 μM, DPPH 100 μM.
Description: as §1, §2

The next test addresses MAO B, human enzyme. Details: method as in PMID 22282722. The conditions noted are these: competitive inhibition; cited from earlier work.

Regarding `O=c1c(O)c(-c2ccc(O)c(O)c2)oc2cc(O)cc(O)c12` [quercetin], the “ABTS radical scavenging activity” value in test [1] is reported as “strong radical scavenger”. In test [2], the “DPPH radical scavenging activity” value is “strong radical scavenger”.

For the molecule `CN(CCOc1ccc(CC2SC(=O)NC2=O)cc1)c1ccccn1` (stereo not shown) [rosiglitazone], the “Ki for human MAO B (competitive)” value at MAO B, human enzyme was “low-”. Regarding `CCc1ccc(CCOc2ccc(CC3SC(=O)NC3=O)cc2)nc1` (stereo not shown) [pioglitazone], the “Ki for human MAO B (competitive)” value at MAO B, human enzyme was “submicromolar”.
